The record followed here is article PMC2797259 (The Journal of Biological Chemistry, 2009).

For the assay, the target named is T1, BacA (Bacillus subtilis, UniProt P39638).
T1 sequence (P39638 1-204): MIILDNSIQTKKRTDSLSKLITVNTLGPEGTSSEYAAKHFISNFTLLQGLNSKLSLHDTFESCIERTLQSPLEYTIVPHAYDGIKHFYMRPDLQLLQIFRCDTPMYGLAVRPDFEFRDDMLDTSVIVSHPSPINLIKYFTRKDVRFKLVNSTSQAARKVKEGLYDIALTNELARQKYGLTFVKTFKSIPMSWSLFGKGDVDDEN
In words: HPLC, UV, 1H NMR and ESI-MS of products. In kind it is biochemical. Particulars: decarboxylation; Tris-HCl pH 8.1.

`O=C(O)C(=O)CC1(C(=O)O)C=CC(O)C=C1` (stereo not shown) [prephenate]: the “HPLC, UV, 1H NMR and ESI-MS of products” value is “prephenate is a substrate for BacA and not for BacB”.
